Drawing on BindingDB's records for doi:10.1016/j.ejphar.2003.10.004 (Yamanouchi Pharmaceutical, 2004), this text covers Ki for 2 compounds.

Test [1] concerns the target 5-hydroxytryptamine receptor 1B (Canis lupus familiaris, UniProt P79250).
Test [2] has as its target 5-hydroxytryptamine receptor 5A (Homo sapiens, UniProt P47898).
The target in test [3] is T1, Alpha-2A adrenergic receptor (Homo sapiens, UniProt P08913).
T1 sequence (P08913 whole entry): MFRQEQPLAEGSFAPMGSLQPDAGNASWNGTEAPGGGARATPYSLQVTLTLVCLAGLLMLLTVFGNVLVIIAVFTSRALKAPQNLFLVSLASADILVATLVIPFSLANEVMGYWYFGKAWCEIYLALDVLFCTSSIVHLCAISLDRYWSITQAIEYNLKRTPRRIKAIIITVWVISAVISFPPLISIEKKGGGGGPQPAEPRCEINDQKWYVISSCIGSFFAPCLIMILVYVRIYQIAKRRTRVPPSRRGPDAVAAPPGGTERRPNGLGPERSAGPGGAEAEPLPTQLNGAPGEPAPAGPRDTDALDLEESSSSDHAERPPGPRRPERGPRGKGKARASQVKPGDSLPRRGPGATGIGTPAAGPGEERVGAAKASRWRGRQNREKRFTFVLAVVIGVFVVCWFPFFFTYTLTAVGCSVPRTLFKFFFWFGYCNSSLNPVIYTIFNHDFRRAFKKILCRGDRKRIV

For test [4], the target named is 5-hydroxytryptamine receptor 2B (Homo sapiens, UniProt P41595).
Sequence of 5-hydroxytryptamine receptor 2B (P41595 whole entry): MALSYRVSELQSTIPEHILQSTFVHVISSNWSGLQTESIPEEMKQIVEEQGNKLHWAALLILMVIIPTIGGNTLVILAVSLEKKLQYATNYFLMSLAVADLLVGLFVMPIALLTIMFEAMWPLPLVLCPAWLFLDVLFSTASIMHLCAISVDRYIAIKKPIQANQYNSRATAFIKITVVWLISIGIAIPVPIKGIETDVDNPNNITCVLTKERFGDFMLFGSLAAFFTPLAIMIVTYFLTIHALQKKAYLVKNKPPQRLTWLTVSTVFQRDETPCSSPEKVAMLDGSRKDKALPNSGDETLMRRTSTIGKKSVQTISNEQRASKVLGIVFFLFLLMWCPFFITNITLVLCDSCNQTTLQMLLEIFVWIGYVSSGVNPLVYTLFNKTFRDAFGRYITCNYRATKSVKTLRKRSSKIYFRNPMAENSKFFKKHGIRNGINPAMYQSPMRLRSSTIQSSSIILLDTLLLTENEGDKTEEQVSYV
Test [5] addresses 5-hydroxytryptamine 1D receptor (Bos taurus, UniProt Q8MI13).
Test [6] has as its target T2, 5-hydroxytryptamine receptor 3A (Homo sapiens, UniProt P46098).
T2 sequence (P46098 whole entry): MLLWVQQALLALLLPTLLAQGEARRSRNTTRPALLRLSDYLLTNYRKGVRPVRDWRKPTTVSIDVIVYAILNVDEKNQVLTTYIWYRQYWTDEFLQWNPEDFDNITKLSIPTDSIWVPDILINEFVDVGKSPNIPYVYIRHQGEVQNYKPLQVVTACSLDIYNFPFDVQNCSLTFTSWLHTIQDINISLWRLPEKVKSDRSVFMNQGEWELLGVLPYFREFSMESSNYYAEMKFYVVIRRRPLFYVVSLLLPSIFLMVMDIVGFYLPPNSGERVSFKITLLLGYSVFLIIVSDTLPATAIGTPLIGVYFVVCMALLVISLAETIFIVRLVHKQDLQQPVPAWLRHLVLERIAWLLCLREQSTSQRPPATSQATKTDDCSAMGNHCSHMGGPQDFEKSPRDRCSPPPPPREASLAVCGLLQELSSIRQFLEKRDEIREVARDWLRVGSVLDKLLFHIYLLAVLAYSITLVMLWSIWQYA

In test [7] the target is 5-hydroxytryptamine receptor 7 (Homo sapiens, UniProt P34969).
Sequence of 5-hydroxytryptamine receptor 7 (P34969 whole entry): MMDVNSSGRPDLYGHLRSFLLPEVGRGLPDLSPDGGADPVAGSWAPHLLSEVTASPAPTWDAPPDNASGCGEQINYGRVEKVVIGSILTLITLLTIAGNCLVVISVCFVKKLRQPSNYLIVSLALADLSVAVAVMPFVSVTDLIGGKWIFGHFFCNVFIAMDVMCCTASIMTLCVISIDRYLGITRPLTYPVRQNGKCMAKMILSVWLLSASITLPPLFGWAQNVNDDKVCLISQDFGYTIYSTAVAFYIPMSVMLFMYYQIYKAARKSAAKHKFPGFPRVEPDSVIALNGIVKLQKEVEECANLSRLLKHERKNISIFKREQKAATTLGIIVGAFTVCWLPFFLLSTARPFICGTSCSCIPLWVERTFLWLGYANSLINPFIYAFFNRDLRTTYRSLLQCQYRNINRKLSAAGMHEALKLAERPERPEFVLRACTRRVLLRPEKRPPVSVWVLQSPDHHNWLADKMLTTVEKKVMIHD
Test [8] has as its target T3, 5-hydroxytryptamine receptor 2C (Homo sapiens, UniProt P28335).
T3 sequence (P28335 whole entry): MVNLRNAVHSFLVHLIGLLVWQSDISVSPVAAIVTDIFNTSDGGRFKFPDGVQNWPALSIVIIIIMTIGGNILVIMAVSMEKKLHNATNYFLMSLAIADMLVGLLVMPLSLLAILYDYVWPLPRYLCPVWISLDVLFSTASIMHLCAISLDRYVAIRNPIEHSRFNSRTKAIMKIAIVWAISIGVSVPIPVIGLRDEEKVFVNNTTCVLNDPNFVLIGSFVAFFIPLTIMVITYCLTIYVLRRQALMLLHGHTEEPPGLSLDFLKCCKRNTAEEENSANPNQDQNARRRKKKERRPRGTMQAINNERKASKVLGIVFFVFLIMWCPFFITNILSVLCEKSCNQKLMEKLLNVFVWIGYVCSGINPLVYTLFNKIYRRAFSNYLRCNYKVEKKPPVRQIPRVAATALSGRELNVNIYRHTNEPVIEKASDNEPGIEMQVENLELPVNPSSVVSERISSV

For test [9], the target named is 5-hydroxytryptamine receptor 2A (Homo sapiens, UniProt P28223).
Sequence of 5-hydroxytryptamine receptor 2A (P28223 whole entry): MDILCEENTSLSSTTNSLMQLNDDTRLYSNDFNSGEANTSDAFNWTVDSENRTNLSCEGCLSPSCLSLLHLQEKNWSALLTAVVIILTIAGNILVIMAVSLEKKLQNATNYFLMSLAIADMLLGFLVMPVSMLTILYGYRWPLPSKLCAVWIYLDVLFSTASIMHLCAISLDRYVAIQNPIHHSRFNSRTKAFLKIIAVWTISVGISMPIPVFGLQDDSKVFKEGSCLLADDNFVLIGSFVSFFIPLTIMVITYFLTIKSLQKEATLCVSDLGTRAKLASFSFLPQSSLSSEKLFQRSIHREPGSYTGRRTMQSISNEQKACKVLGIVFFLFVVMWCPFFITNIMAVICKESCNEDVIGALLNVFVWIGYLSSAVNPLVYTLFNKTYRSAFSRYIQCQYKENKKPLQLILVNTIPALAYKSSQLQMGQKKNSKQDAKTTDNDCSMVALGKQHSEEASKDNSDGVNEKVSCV

Sequence of 5-hydroxytryptamine 1D receptor (Q8MI13 whole entry): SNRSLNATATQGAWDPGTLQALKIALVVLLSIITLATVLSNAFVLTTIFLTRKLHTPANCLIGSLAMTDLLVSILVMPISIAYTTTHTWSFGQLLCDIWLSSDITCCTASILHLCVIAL
Sequence of 5-hydroxytryptamine receptor 1B (P79250 whole entry): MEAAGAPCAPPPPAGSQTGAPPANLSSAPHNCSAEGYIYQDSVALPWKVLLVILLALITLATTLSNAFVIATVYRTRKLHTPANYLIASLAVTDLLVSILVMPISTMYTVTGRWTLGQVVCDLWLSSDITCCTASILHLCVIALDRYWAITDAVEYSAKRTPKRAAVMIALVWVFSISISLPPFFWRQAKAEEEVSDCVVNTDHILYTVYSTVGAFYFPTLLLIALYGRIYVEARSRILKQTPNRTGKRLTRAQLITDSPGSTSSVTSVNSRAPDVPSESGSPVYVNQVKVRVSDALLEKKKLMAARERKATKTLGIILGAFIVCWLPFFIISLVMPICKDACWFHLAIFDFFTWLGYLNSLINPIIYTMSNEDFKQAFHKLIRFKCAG
Sequence of 5-hydroxytryptamine receptor 5A (P47898 whole entry): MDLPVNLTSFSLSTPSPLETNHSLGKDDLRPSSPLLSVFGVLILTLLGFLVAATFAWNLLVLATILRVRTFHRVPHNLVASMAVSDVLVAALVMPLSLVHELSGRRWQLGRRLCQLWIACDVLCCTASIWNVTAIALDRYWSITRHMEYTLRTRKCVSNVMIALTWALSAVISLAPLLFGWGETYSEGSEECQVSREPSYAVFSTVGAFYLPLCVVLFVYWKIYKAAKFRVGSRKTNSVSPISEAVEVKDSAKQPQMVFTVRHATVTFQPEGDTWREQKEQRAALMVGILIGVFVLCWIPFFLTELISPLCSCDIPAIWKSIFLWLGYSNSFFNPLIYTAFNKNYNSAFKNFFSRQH

As a reminder, the Ki is the equilibrium dissociation constant of an inhibitor or competing ligand from its target. The low end stands for higher affinity, the high end for lower affinity. In the case of `CCc1cc2c(ccc3cnn(CC(C)N)c32)o1` (configuration not stated) [CAS_3045225], the Ki in test [1] was 1000 nM; in test [2] it was 1000 nM; in test [3], 126 nM; in test [4], 2.5 nM; in [5], 481 nM; in test [6] it was 1000 nM. For the same compound, the inhibition constant (Ki) in test [7] was found to be 177 nM; in [8], 0.89 nM; in test [9] it was 13 nM.

With `CC(N)Cn1ccc2cc(F)c(Cl)cc21` (configuration not stated) [NSC_3045226], the Ki came to 2.4 nM in [4], 19 nM in test [8] and 24 nM in test [9].
